Data reported in publication PMC3354620 (Journal of the American Chemical Society, 2011).
Entries after “also recorded” stand apart in the source; their conditions may differ.

How the values were obtained:
A/M2-V27A [1] = target: T1, A/M2-V27A (Influenza A virus, UniProt P0DOF5, V27A); format: cell-based, Influenza A virus (Udorn strain)
[2] = test system: influenza A virus (A/Udorn/72) V27A mutant; format: cell-based
A/M2-V27A [3] = target: T1, A/M2-V27A; details: cited from earlier work

SMILES | inhibition against V27A mutant (in words) (A/M2-V27A [1]) | inhibition of A/M2-V27A virus replication [2] | effect of V27A mutation on channel sensitivity to drug (A/M2-V27A [3])
NC12CC3CC(CC(C3)C1)C2 [Amantadine] | completely unable to inhibit | no inhibition; also recorded: no effect | entirely resistant
CC(N)C12CC3CC(CC(C3)C1)C2 (stereo not shown) [rimantadine] | – | – | entirely resistant
